Measured values taken from article PMC9959553, “Promising Antifungal Molecules against Mucormycosis Agents Identified from Pandemic Response Box®: In Vitro and In Silico Analyses” (Journal of Fungi, 2023).

Test system: R. oryzae UCP1295
Assay: Screening of the Pandemic Response Box library at 5 µM
Type: cell-based, Rhizopus oryzae
Conditions: 48 h, Table S1, mean of the four values
Experimental: Rhizopus oryzae UCP is the most prevalent Mucorales species in human infections and was used as a reference strain to screen the Pandemic Response Box® library. Screening was performed according to Rollin-Pinheiro and colleagues. Each compound was diluted in RPMI 1640 medium (Sigma Chemical Co., St. Louis, MO, USA), supplemented with 2% glucose and buffered with 3-(N-morpholino) propanesulfonic acid (MOPS) (Sigma Chemical Co., St. Louis, MO, USA) (0.165 mol/L, pH 7.2, from here on referred to as ‘supplemented RPMI’) to reach 5 μM in 96-well microtiter plates. Posaconazole (5 μM) and supplemented RPMI containing 1% DMSO were used as controls (both from Sigma Chemical Co., St. Louis, MO, USA). Conidia (2 × 10^5/mL) were added and incubated for 48 h at 37 °C in a 5% CO2 atmosphere. […] An inhibition of at least 60% was defined as the cut-off to select the promising drugs with antifungal activity against the Rhizopus species.

SMILES	% of growth inhibition, Mean
Cc1ccc(S(=O)(=O)Nc2cccc3cccnc23)cc1 [MMV233495]	-0.4%
O=C(O)c1cc(-c2ccc(Br)cc2)nc2ccc(Cl)cc12 [MMV247764]	-8.6%
O=S(=O)(Nc1ccc(O)cc1)c1cccc2cccnc12 [MMV251679]	-4.7%
CCN1CCN(Cc2nc3ccc([N+](=O)[O-])cc3c(=O)n2-c2ccccc2F)CC1 [MMV275100]	-8.8%
Oc1ccc2[nH]c(-c3ccccc3)nc2c1 [MMV292173]	-15.4%
COc1ccc(CNC(=O)C(NS(=O)(=O)c2ccc3nc(C)sc3c2)C(C)C)cc1 (centres unmarked) [MMV303733]	-8.6%
COC(=O)Nc1nc2ccccc2[nH]1 [MMV344625]	-13.3%
COc1ccc(NC(=O)c2cc3ccccn3n2)cc1 [MMV374187]	-18.8%
N=c1n(CCN2CCCCC2)c2ccccc2n1CC(O)COc1ccc(Cl)cc1Cl (centres unmarked) [MMV394033]	-0.8%
Oc1cc(-c2cccc3ccccc23)[nH]n1 [MMV422940]	-11.7%
O=C(O)C(Cc1c[nH]c2ccccc12)N1C(=O)c2ccccc2C1=O (centres unmarked) [MMV452821]	-16.1%
NC(=O)c1ccccc1NC(=O)c1ccc(C(=O)Nc2ccccc2C(N)=O)cc1 [MMV508427]	-9.9%
Oc1c(C(Nc2ccccn2)c2ccccc2)ccc2cccnc12 (centres unmarked) [MMV565773]	-30.1%
O=C(c1cc(O)nc2ccccc12)N1CCN(c2ccccc2)CC1 [MMV596723]	-7.3%
COc1ccc(-n2cnc3cc(NCc4ccco4)ccc32)cc1 [MMV617332]	22.8%
CN(Cc1ccc(C(C)(C)C)cc1)Cc1cccc2ccccc12.Cl [MMV637104]	-30.4%
O=c1[nH]cnc2c1ncn2[C@H]1CC[C@@H](CO)O1 [MMV637306]	-2.1%
Nc1nc(F)nc2c1ncn2[C@@H]1O[C@H](CO)[C@@H](O)[C@@H]1O [MMV637413]	-6.9%
CCC(C)n1ncn(-c2ccc(N3CCN(c4ccc(OCC5COC(Cn6cncn6)(c6ccc(Cl)cc6Cl)O5)cc4)CC3)cc2)c1=O (centres unmarked) [MMV637528]	-26.8%
CC(=O)N1CCN(c2ccc(OC[C@@H]3CO[C@@](Cn4ccnc4)(c4ccc(Cl)cc4Cl)O3)cc2)CC1 [MMV637533]	-5.2%
CC1CCc2c(N3CCC(O)CC3)c(F)cc3c(=O)c(C(=O)O)cn1c23 (centres unmarked) [MMV637659]	-19.1%
CC(N)C12CC3CC(CC(C3)C1)C2 (centres unmarked) [MMV637855]	3.7%
CC(C)(C)NC(=O)[C@@H]1C[C@@H]2CCCC[C@@H]2CN1C[C@@H](O)[C@H](Cc1ccccc1)NC(=O)[C@H](CC(N)=O)NC(=O)c1ccc2ccccc2n1 [MMV637879]	25.0%
CC1(C)[C@H](C(=O)O)N2C(=O)C[C@H]2S1(=O)=O [MMV637945]	-27.5%
C=C(C)[C@@H]1CC[C@]2(C(=O)O)CC[C@]3(C)[C@H](CC[C@@H]4[C@@]5(C)CC[C@H](O)C(C)(C)[C@@H]5CC[C@]43C)[C@@H]12 [MMV638198]	43.5%

SMILES	% of growth inhibition, Mean
COC1CC2CCC(C)C(O)(O2)C(=O)C(=O)N2CCCCC2C(=O)OC(C(C)CC2CCC(OCCO)C(OC)C2)CC(=O)C(C)/C=C(\C)C(O)C(OC)C(=O)C(C)CC(C)/C=C/C=C/C=C/1C (centres unmarked) [MMV639951]	-2.4%
O=C(O)c1ccc(-n2nc(-c3ccccc3O)nc2-c2ccccc2O)cc1 [MMV640014]	-17.8%
Cn1cncc1[C@@](N)(c1ccc(Cl)cc1)c1ccc2c(c1)c(-c1cccc(Cl)c1)cc(=O)n2C [MMV658803]	-24.4%
CC(C)=CCC/C(C)=C\CNCCNC1C2CC3CC(C2)CC1C3 (centres unmarked) [MMV687273]	-3.3%
CCc1nc2ccc(Cl)cn2c1C(=O)NCc1ccc(N2CCC(c3ccc(OC(F)(F)F)cc3)CC2)cc1 [MMV687696]	-33.4%
C[C@H]1COc2c(N3CCN(C)CC3)c(F)cc3c(=O)c(C(=O)O)cn1c23 [MMV687798]	-8.6%
CC(C)N=c1cc2n(-c3ccc(Cl)cc3)c3ccccc3nc-2cc1Nc1ccc(Cl)cc1 [MMV687800]	-1.7%
CC[C@H](CO)NCCN[C@H](CC)CO [MMV687801]	-13.2%
O=[N+]([O-])c1cn2c(n1)OC[C@@H](OCc1ccc(OC(F)(F)F)cc1)C2 [MMV688755]	1.3%
CC(=O)NC[C@H]1CN(c2ccc(N3CCSCC3)c(F)c2)C(=O)O1 [MMV688756]	-8.2%
CC(=O)Oc1ccccc1C(=O)Nc1ncc([N+](=O)[O-])s1 [MMV688991]	5.4%
O=C(NCc1ncc(C(F)(F)F)cc1Cl)c1c(Cl)cccc1Cl [MMV689401]	-36.5%
COc1nc2ccc(Br)cc2cc1[C@@H](c1ccccc1)[C@@](O)(CCN(C)C)c1cccc2ccccc12 [MMV689758]	-19.9%
Cc1cc(CCCOc2c(C)cc(-c3noc(C(F)(F)F)n3)cc2C)on1 [MMV690467]	-3.4%
COc1ccccc1CN[C@H]1C2CCN(CC2)[C@H]1C(c1ccccc1)c1ccccc1 [MMV690480]	-1.8%
Nc1nc(=O)c(Br)c(-c2ccccc2)[nH]1 [MMV690540]	-23.8%
CCOCc1nc2c(N)nc3ccccc3c2n1CC(C)(C)O [MMV690547]	-3.7%
FC(F)(F)c1cc(C(F)(F)F)c2ccc3nc(-c4nnco4)cn3c2n1 [MMV690555]	-25.6%
O=C(NC1CCCc2c1[nH]c1ccc(Cl)cc21)c1ccccn1 (centres unmarked) [MMV690621]	-11.4%
COc1cccc(N2CCN(C3=Nc4c(F)cccc4[C@H](CC(=O)O)N3c3cc(C(F)(F)F)ccc3OC)CC2)c1 [MMV690653]	-6.7%
O=C(NO)C1(CS(=O)(=O)c2ccc(Oc3ccc(Cl)cc3)cc2)CCOCC1 [MMV690706]	-11.0%
CN(C)CCNC(=O)c1cccc2cccnc12 [MMV811071]	-21.7%
CCc1ccc(C2CC(C(F)(F)F)n3ncc(C(=O)NCc4ccc(OC)cc4)c3N2)cc1 (centres unmarked) [MMV831201]	-4.6%
Nc1cc(-c2nc3ccccc3[nH]2)n[nH]c1=O [MMV975972]	0.3%
O=C1C=C(c2ccccc2)S(=O)(=O)c2ccccc21 [MMV1006203]	-8.8%

SMILES	% of growth inhibition, Mean
CC(C)Oc1cccc(NC(=O)c2ccccc2C(F)(F)F)c1 [MMV1009286]	-12.9%
O=C(c1ccc(F)cc1)N1CCN2C(=O)c3ccccc3C12c1ccccc1 (centres unmarked) [MMV1165877]	-2.4%
CC(C)(C)c1ccc(Oc2ccc(N)cc2)cc1 [MMV1174026]	-12.8%
CC(C)(C)c1cc(CCC(=O)N2CCC2)cc(C(C)(C)C)c1O [MMV1229204]	-11.2%
O=C(NCc1ccccc1Cl)c1cnc2ccccc2n1 [MMV1230557]	-3.7%
O=C(NCc1ccc2c3c(cccc13)C(=O)N2)c1cccs1 [MMV1341773]	-28.3%
COc1c(F)c(F)cc2c(=O)c(C(=O)O)cn(C3CC3)c12 [MMV1480967]	-20.4%
COc1ccc(NC(=O)CC2Sc3ncnn3C2=O)cc1 (centres unmarked) [MMV1483032]	-13.1%
O=S(=O)(Nc1ccc(-n2cccc2)cc1)c1ccc(Cl)c(Cl)c1 [MMV1505642]	-4.1%
CC1(C)Cc2c(C#N)c(SCCc3ccccc3)nc(N3CCOCC3)c2CO1 [MMV1549626]	-26.0%
CC[C@H](NC(=O)[C@H](C)NC)C(=O)N1C[C@@H](O)C[C@H]1Cc1c(-c2[nH]c3cc(F)ccc3c2C[C@@H]2C[C@H](O)CN2C(=O)[C@H](CC)NC(=O)[C@H](C)NC)[nH]c2cc(F)ccc12 [MMV1557856]	3.0%
O=C1NC(=O)C(Br)=C1Br [MMV1578554]	-14.5%
O=C(Nc1ccc(F)cc1)c1nn(-c2ccccc2)c(=O)cc1Cl [MMV1578555]	-18.6%
C[C@H]1CC[C@@]2(O)C(C)(C)[C@@H]3CC[C@@]2(C)[C@H]1C3 [MMV1578556]	-4.8%
Cc1c(N)cccc1Cn1ccc(OCCc2cccs2)cc1=O [MMV1578557]	-5.6%
CCc1oc2ccccc2c1C(=O)c1ccc(O)cc1 [MMV1578558]	-39.8%
CO[C@@]1(NC(=O)Cc2cccs2)C(=O)N2C(C(=O)O)=C(COC(N)=O)CS[C@@H]21 [MMV1578559]	-22.5%
NCC(=O)Nc1ccc(-n2nc(C(F)(F)F)cc2-c2ccc3c(ccc4ccccc43)c2)cc1 [MMV1578560]	-14.6%
CCCCCCCc1[nH]c2ccccc2c(=O)c1O [MMV1578561]	-24.4%
O=S(=O)(Nc1ccccc1)c1ccc(NC(=S)Nc2ccccc2)cc1 [MMV1578562]	-19.4%
Fc1ccc2c(/C=C/c3nnn[nH]3)c[nH]c2c1 [MMV1578563]	-0.5%
CCc1cc(O)c(Oc2ccc(C(N)=O)cc2F)cc1F [MMV1578564]	-17.4%
CSC[C@H]1CN(Cc2c[nH]c3c(N)ncnc23)C[C@@H]1O [MMV1578565]	-14.4%
NC[C@H]1OB(O)c2c(OCCCO)cccc21 [MMV1578566]	-20.6%
